Laboratory results from publication PMC8909834, “An Orally Bioavailable and Highly Efficacious Inhibitor of CDK9/FLT3 for the Treatment of Acute Myeloid Leukemia” (Cancers, 2022).
Read-outs that look alike come from different tables or passages of the source.

Tests used:
Pharmacokinetics in mice = type: in vivo, BALB/c hairy mice; conditions: both sexes, BALB/c hairy, mouse; for AUC / Cmax / Tmax / half-life: ± standard error of the estimate; for half-life: read-out: t½ (converted); for bioavailability: po, read-out: F (oral bioavailability)
Experimental: Pharmacokinetics. The pharmacokinetics of CDDD11-8 was determined in mice after single oral (PO) and intravenous (IV) doses. CDDD11-8 was administered at a dose of 10 or 100 mg/kg PO or 2 mg/kg IV to BALB/c hairy mice (n = 10 per route of administration; both male and female). The IV dose consisted of CDDD11-8 dissolved in 10/90 N-methyl-2-pyrrolidone (NMP)/acetate buffer (pH 4.5), while the PO doses of CDDD11-8 were dissolved in acetate buffer at pH 4.74. At nominal times, up to three blood samples were collected from individual mice at non-consecutive times from the right cheek, left cheek, and heart of an individual mouse. The concentrations in these samples were measured by validated LC-MS/MS methods (limit of quantification = 5 ng/mL). Pharmacokinetic parameters were estimated after fitting compartmental models to the concentration–time data (Phoenix, Certara, NJ, USA). Specifically, a one-compartmental kinetic model with first-order input was used after an oral dose, and a two-compartmental model was fitted to the IV data. Acceptability of models was evaluated from values for Akaike Information Criterion (AIC), Schwarz’s Bayesian Criterion (SIB), and % Coefficient of Variance (CV) for parameters, where lower values were indicative of a better fit. Other considerations were variances in the concentrations of quality control samples and visual inspection of model fit. Oral bioavailability (F) was calculated from values of AUC after PO and IV administration after correcting for the differences in doses.

JURKAT = assay: Cell viability assay (resazurin); type: cell-based; conditions: Homo sapiens, 72 h, mean ± SD
Experimental: (§1) Cell culture. MV4-11, HL60, K-562, THP-1, MO91, and U937 cell lines were from the ATCC (Rockville, MD, USA); MOLM-13, NB4, and PL21 cell lines were from the DSMZ (Braunschweig, Germany); and Jurkat cells were from the ECACC (Salisbury, UK). All cells were cultured in RPMI medium (Sigma-Aldrich) supplemented with 10% to 20% of heat-inactivated fetal bovine serum (Sigma-Aldrich), and cells were maintained at 37 °C, 5% CO2, and 95% humidity. All the cell lines were tested to be mycoplasma-negative using MycoAlert^TM mycoplasma detection kit (Lonza, Derrimut, VIC, Australia).
(§2) Cell viability assay. The viability of leukemia cell lines after incubation with CDDD11-8 was determined by their ability to reduce resazurin, as described previously. Cells (5 × 10^3) were seeded into 96-well plates (Corning Inc., Corning, NY, USA) and incubated overnight at 37 °C. Subsequently, they were incubated with CDDD11-8 (concentrations ranging from 0.003 µM to 31.6 µM; using three-fold serial dilutions) or DMSO (final concentration of 0.1%) for 72 h. Afterwards, cells were incubated with 20 µL of resazurin (0.1 mg/mL in PBS) for 4 h at 37 °C under 5% CO2, and the fluorescence intensities were measured using an EnVision® multilabel plate reader at 570 nm (excitation)/585 nm (emission). The concentration required to inhibit cellular growth by 50% (GI50) was determined using the same non-linear regression model as shown above, with Ar (%) = % cell viability, and IC50 replaced with GI50.

NB4 = assay: Cell viability assay (resazurin); type: cell-based; conditions: Homo sapiens, NB-4; NB4, 72 h, mean ± SD
Experimental: as §1, §2

HL60 = assay: Cell viability assay (resazurin); type: cell-based; conditions: Homo sapiens, HL-60; HL60, 72 h, mean ± SD
Experimental: as §1, §2

PL21 = assay: Cell viability assay (resazurin); type: cell-based; conditions: PL21, 72 h, mean ± SD
Experimental: as §1, §2

U937 = assay: Cell viability assay (resazurin); type: cell-based; conditions: Homo sapiens, U-937; U937, 72 h, mean ± SD
Experimental: as §1, §2

MOLM-13 = assay: Cell viability assay (resazurin); type: cell-based; conditions: MOLM-13, 72 h, mean ± SD
Experimental: as §1, §2

With Cc1cnc(N[C@H]2CC[C@H](N)CC2)nc1-c1cnc2ccc(-c3ccccc3)cn12 [CDDD11-8] the concentration at 9.7 h (Pharmacokinetics in mice; plasma, PO 10 mg/kg, 9.7 h, read-out: Plasma Conc.) was 1 ng/mL, the concentration at 15.8 h (Pharmacokinetics in mice; plasma, PO 10 mg/kg, 15.8 h, read-out: Plasma Conc.) was 0 ng/mL and the concentration at 21 h (Pharmacokinetics in mice; plasma, PO 10 mg/kg, 21.0 h, read-out: Plasma Conc.) was 0 ng/mL. It also gave a concentration at 24.6 h (Pharmacokinetics in mice; plasma, PO 10 mg/kg, read-out: Plasma Conc.) of 0 ng/mL, a concentration at 0.1 h (Pharmacokinetics in mice; plasma, PO 100 mg/kg, 0.10 h, read-out: Plasma Conc.) of 810 ng/mL and a concentration at 0.38 h (Pharmacokinetics in mice; plasma, PO 100 mg/kg, 0.38 h, read-out: Plasma Conc.) of 925 ng/mL. For the same compound, the concentration at 0.73 h (Pharmacokinetics in mice; plasma, PO 100 mg/kg, 0.73 h, read-out: Plasma Conc.) was 2660 ng/mL, the concentration at 1.2 h (Pharmacokinetics in mice; plasma, PO 100 mg/kg, 1.2 h, read-out: Plasma Conc.) was 1810 ng/mL and the concentration at 1.9 h (Pharmacokinetics in mice; plasma, PO 100 mg/kg, 1.9 h, read-out: Plasma Conc.) was 3010 ng/mL. It also gave a concentration at 2.6 h (Pharmacokinetics in mice; plasma, PO 100 mg/kg, 2.6 h, read-out: Plasma Conc.) of 3680 ng/mL, a concentration at 2.9 h (Pharmacokinetics in mice; plasma, PO 100 mg/kg, 2.9 h, read-out: Plasma Conc.) of 2480 ng/mL and a concentration at 4.9 h (Pharmacokinetics in mice; plasma, PO 100 mg/kg, 4.9 h, read-out: Plasma Conc.) of 4830 ng/mL. For the same compound, the concentration at 6.1 h (Pharmacokinetics in mice; plasma, PO 100 mg/kg, 6.1 h, read-out: Plasma Conc.) was 2160 ng/mL, the concentration at 7 h (Pharmacokinetics in mice; plasma, PO 100 mg/kg, 7.0 h, read-out: Plasma Conc.) was 881 ng/mL and the concentration at 7.8 h (Pharmacokinetics in mice; plasma, PO 100 mg/kg, 7.8 h, read-out: Plasma Conc.) was 717 ng/mL. For the same compound, the concentration at 8.3 h (Pharmacokinetics in mice; plasma, PO 100 mg/kg, 8.3 h, read-out: Plasma Conc.) was 1200 ng/mL, the concentration at 8.9 h (Pharmacokinetics in mice; plasma, PO 100 mg/kg, 8.9 h, read-out: Plasma Conc.) was 854 ng/mL and the concentration at 9.6 h (Pharmacokinetics in mice; plasma, PO 100 mg/kg, 9.6 h, read-out: Plasma Conc.) was 248 ng/mL. The concentration at 16 h (Pharmacokinetics in mice; plasma, PO 100 mg/kg, 16.0 h, read-out: Plasma Conc.) was 77 ng/mL, the concentration at 22.1 h (Pharmacokinetics in mice; plasma, PO 100 mg/kg, 22.1 h, read-out: Plasma Conc.) was 153 ng/mL and the concentration at 24.6 h (Pharmacokinetics in mice; plasma, PO 100 mg/kg, read-out: Plasma Conc.) was 74 ng/mL. For the same compound, the concentration at 29 h (Pharmacokinetics in mice; plasma, PO 100 mg/kg, 29.0 h, read-out: Plasma Conc.) was 62 ng/mL, the concentration at 41.2 h (Pharmacokinetics in mice; plasma, PO 100 mg/kg, 41.2 h, read-out: Plasma Conc.) was 0 ng/mL and the Vd (Pharmacokinetics in mice; plasma, intravenous, 2 mg/kg, read-out: volume of distribution) was 1.71 L/kg. For the same compound, the AUC (Pharmacokinetics in mice; plasma, oral 10 mg/kg) was 1360 ± 249 ng·h/mL, the Cmax (Pharmacokinetics in mice; plasma, oral 10 mg/kg) was 496 ± 108 ng/mL and the Tmax (Pharmacokinetics in mice; plasma, oral 10 mg/kg) was 1 ± 0.1 h. The half-life (Pharmacokinetics in mice; plasma, oral 10 mg/kg) was 0.68 ± 0.3 h, the AUC (Pharmacokinetics in mice; plasma, oral 100 mg/kg) was 25400 ng·h/mL and the Cmax (Pharmacokinetics in mice; plasma, oral 100 mg/kg) was 3600 ± 822 ng/mL. For the same compound, the Tmax (Pharmacokinetics in mice; plasma, oral 100 mg/kg) was 2 ± 0.6 h, the half-life (Pharmacokinetics in mice; plasma, oral 100 mg/kg) was 6.8 ± 3.7 h and the bioavailability (Pharmacokinetics in mice; plasma, 10 mg/kg, oral 10 mg/kg) was roughly 30%. For the same compound, the bioavailability (Pharmacokinetics in mice; plasma, 100 mg/kg, oral 100 mg/kg) was 56%, the clearance (Pharmacokinetics in mice; whole blood, intravenous, 2 mg/kg, plasma clearance divided by B/P, read-out: blood clearance (converted)) was 51.7 mL/min/kg and the GI50 (JURKAT) was 599 ± 90 nM. For the same compound, the GI50 (NB4) was 473 ± 107 nM, the GI50 (HL60) was 475 ± 25 nM and the GI50 (PL21) was 339 ± 34 nM. The GI50 (PL21; PL-21, 72 h) was 340 nM, the GI50 (U937) was 713 ± 93 nM and the GI50 (MOLM-13; Homo sapiens) was less than 100 nM. For the same compound, the GI50 (MOLM-13) was 70 ± 20 nM.
